This assay has as its target DCN1 (Homo sapiens (Human), UniProt Q96GG9). The assay can be described thus: Competitive FP binding assay. On the procedure:
Competitive FP Binding Assay
The Fluorescence Polarization (FP) competitive binding assays were performed to accurately determine the binding affinities of our DCN1 inhibitors. […] Serial dilutions of proteins were mixed with 46 to a final volume of 200 μl in the assay buffer (100 mM phosphate buffer, pH=6.5, with 0.02% Tween-20 and 2% DMSO). Final probe concentration was 5 nM for both assays. Plates were incubated at room temperature for 30 minutes with gentle shaking to assure equilibrium.
Pure proteins were derived from the same expression and purification protocols. Plasmids were transformed into Rosetta2 cells, the cells were grown in Terrific Broth at 37° C. to an O.D.600>1.0 and induced with 0.4 mM Isopropyl (3-D-1-thiogalactopyranoside overnight at 20° C. The pelleted cells were resuspended in lysis buffer containing 25 mM Tris-HCl, pH 7.5, 200 mM NaCl and protease inhibitors, sonicated and centrifuged at 34,000×g for 45 minutes to remove debris. Cleared lysate was incubated with Ni-NTA resin (Qiagen) prewashed with lysis buffer, for 1 hr at 4° C. The matrix was loaded into a column then washed with 25 mM Tris-HCl, pH 7.5, 200 mM NaCl and 10 mM imidazole. Protein was eluted with 25 mM Tris-HCl, pH 7.5, 200 mM NaCl and 300 mM imidazole, concentrated and applied to a Superdex 75 (GE Healthcare) column pre-equilibrated with 25 mM Tris pH 7.5, 200 mM NaCl and 1 mM DTT. For DCN2-5, the N-terminal His6 tag was removed prior to gel filtration. Tag removal was achieved through incubation with TEV protease during overnight dialysis against 25 mM Tris pH 7.5, 200 mM NaCl and 1 mM DTT and a second Ni-NTA column. DCN2-5 proteins were stored at −80° C. in 1 mg/mL fractions containing 5% glycerol. The uncleaved DCN1 protein was stored at −80° C. without glycerol.

The mark [1] stands for this setting: bounds given in μM, read-out: Binding affinity to DCN1 (IC50).
The mark [2] stands for this setting: read-out: Binding affinity to DCN1 (IC50 (nM)).

Where two headings read alike, the source gives them in different places. Square brackets hold non-standard residues; d marks the D form. Peptide text beside a SMILES is read from it. * marks the point of attachment. Ala(6-iPr-benzothiazol-2-yl) = CC(C)c1ccc2nc(C[C@H](N)C(=O)O)sc2c1; Abu(4,4,4-F3) = N[C@@H](CC(F)(F)F)C(=O)O; 2Nal = N[C@@H](Cc1ccc2ccccc2c1)C(=O)O; Chg = N[C@H](C(=O)O)C1CCCCC1; Propionyl = CCC(=O)*; Moc = COC(=O)*

Chain of DCN1 (Q96GG9 58-259): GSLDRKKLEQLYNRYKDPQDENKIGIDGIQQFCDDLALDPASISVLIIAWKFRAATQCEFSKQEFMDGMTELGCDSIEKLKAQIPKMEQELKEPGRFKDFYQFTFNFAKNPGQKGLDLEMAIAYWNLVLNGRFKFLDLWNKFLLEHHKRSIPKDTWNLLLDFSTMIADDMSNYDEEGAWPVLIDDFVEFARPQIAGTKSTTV

For `CCC(=O)N[C@@H](Cc1nc2c(F)cccc2s1)C(=O)N[C@H](C(=O)N[C@@H](CCCCN)C(=O)NC(c1ccccc1)c1ccccc1)C1CCCC1` [Example 26], under setting [1], the IC50 – broadly, the concentration at which inhibition is half-maximal – is above 3 µM.

Take `CCC(=O)N[C@@H](Cc1nc2ccc(C(C)C)cc2s1)C(=O)N[C@H](CNC(=O)c1nnc[nH]1)C1CCCCC1` [Example 65]: under setting [2], the IC50 is 0.119 µM.

In the case of `CCC(=O)N[C@@H](Cc1nc2ccc(C)cc2s1)C(=O)N[C@H](C(=O)N[C@@H](CCCCN)C(=O)N[C@@H]1CCOc2ccccc21)C1CCNCC1` [Example 180], the IC50 under setting [1] was above 1 µM.

With `CCC(=O)N[C@@H](Cc1cn2cc(C(C)C)ccc2n1)C(=O)N[C@H](C(=O)N[C@@H](CCCCN)C(=O)N[C@@H]1CCOc2ccccc21)C1CCOCC1` [210 & 211], under setting [2], the IC50 was determined as 0.0812 µM.

Take `CCC(=O)N[C@@H](Cc1ccc2ccccc2c1)C(=O)N[C@H](C(=O)N[C@@H](CCCCN)C(=O)N[C@H]1CCOc2ccccc21)[C@@H](C)CC` [Example 18]: the IC50 under setting [2] was 3.05 µM.

In the case of `CCC(=O)N[C@@H](Cc1nc2ccc(C(C)C)cc2s1)C(=O)N[C@@H](Cc1ccccc1)C(=O)N[C@@H](CCCCN)C(=O)N[C@@H](CC(C)C)C(N)=O` [Example 290] (Propionyl-[Ala(6-iPr-benzothiazol-2-yl)]FKL-NH2), the IC50 under setting [2] stood at 0.0556 µM.

Consider `CCC(=O)N[C@H](CNC(=O)C1(N)CCCCC1)Cc1nc2ccc(Cl)cc2s1` [Example 119], for which the IC50 under setting [2] turned out to be 0.477 µM.

Take `CCC(=O)N[C@@H](Cc1nc2ccc(C(C)C)cc2s1)C(=O)N[C@H](CNC(=O)C1CCN(CCO)CC1)C1CCCCC1` [Example 72]: under setting [2], the IC50 was found to be 0.0659 µM.

As to `CCC(=O)N[C@H](CNC(=O)Cc1ccccc1)Cc1nc2ccc(Cl)cc2s1` [Example 253], under setting [2], the IC50 stood at 1.2 µM.

On to `CCC(=O)N[C@H](CN)Cc1nc2ccc(C(C)C)cc2s1` [Example 109], for which the IC50 under setting [1] was above 10 µM.

Turning to `CCC(=O)N[C@@H](Cc1ccc2ccccc2c1)C(=O)N[C@@H](CC(C)(C)C)C(=O)N[C@@H](CCCCN)C(=O)NC(c1ccccc1)c1ccccc1` [Example 22], under setting [2], the IC50 amounted to 0.361 µM.

In the case of `CCC(=O)N[C@@H](Cc1nc2ccc(Cl)cc2s1)C(=O)N[C@H](C(=O)N[C@@H](CCCCN(C)C)C(=O)N[C@@H]1CCOc2ccccc21)C1CCOCC1` [Example 38], the IC50 under setting [2] came out at 0.123 µM.

Regarding `CCC(=O)N[C@@H](Cc1nc2ccc(C(C)C)cc2s1)C(=O)N[C@@H](CN)Cc1ccccc1` [Example 90], the IC50 under setting [1] was above 5 µM.

With `CCC(=O)N[C@H](CNC(=O)C1CCCCC1)Cc1nc2ccc(Cl)cc2s1` [Example 254], the IC50 under setting [2] was determined as 1.34 µM.

Turning to `CCC(=O)N[C@@H](Cc1nc2ccc(C(C)C)cc2s1)C(=O)N[C@H](C(=O)N[C@@H](CCCCN)C(=O)N[C@@H](CC(C)C)C(N)=O)C1CCCCC1` [Example 286] (Propionyl-[Ala(6-iPr-benzothiazol-2-yl)][Chg]KL-NH2), the IC50 under setting [2] was determined as 0.0583 µM.

For the compound `CCC(=O)N[C@@H](Cc1ccc2ccccc2c1)C(=O)N[C@H](C(=O)N[C@@H](CCCCN)C(=O)NC(c1ccccc1)c1ccccc1)C1CCCC1` [Example 19], the IC50 under setting [2] was found to be 0.27 µM.

With `CC[C@H](C)[C@H](NC(=O)[C@H](Cc1ccc2ccccc2c1)NC(=O)OC)C(=O)N[C@@H](CCCCN)C(=O)N[C@@H](CC(C)C)C(N)=O` [Example 170] (Moc-[2Nal]IKL-NH2), under setting [1], the IC50 is above 10 µM.

Take `CCC(=O)N[C@@H](Cc1ccc2ccccc2c1)C(=O)N[C@@H](Cc1cccs1)C(=O)N[C@@H](CCCCN)C(=O)NC(c1ccccc1)c1ccccc1` [Example 24]: the IC50 under setting [2] stood at 0.967 µM.

Consider `CCC(=O)N[C@@H](Cc1ccccn1)C(=O)N[C@H](C(=O)N[C@@H](CCCCN)C(=O)NC(c1ccccc1)c1ccccc1)[C@@H](C)CC` [Example 132], for which the IC50 under setting [1] is above 10 µM.

Turning to `CC[C@H](C)[C@H](NC(=O)[C@@H](N)Cc1nc2ccc(C(C)C)cc2s1)C(=O)N[C@@H](CCCCN)C(=O)N[C@@H](CC(C)C)C(N)=O` [Example 272] (H-[Ala(6-iPr-benzothiazol-2-yl)]IKL-NH2), under setting [1], the IC50 is above 10 µM.

Turning to `CCC(=O)N[C@@H](Cc1nc2ccc(Cl)cc2s1)C(=O)N[C@H](C(=O)N[C@@H](CC1CCNCC1)C(=O)N[C@@H]1CCOc2ccccc21)C1CCOCC1` [Example 41], the IC50 under setting [2] was 0.222 µM.

Consider `CCC(=O)N[C@@H](Cc1nc2ccc(C)cc2s1)C(=O)N[C@@H](Cc1cccnc1)C(=O)N[C@@H](CCCCN)C(=O)N[C@@H]1CCOc2ccccc21` [Example 183], for which, under setting [2], the IC50 was determined as 0.165 µM.

For the compound `CCC(=O)N[C@@H](Cc1ccc2ccccc2c1)C(=O)N[C@H](C(=O)N[C@@H](CCCCN)C(=O)NC(c1ccccc1)c1ccccc1)[C@@H](C)CC` [Example 12], the IC50 under setting [2] stood at 0.611 ± 0.193 µM.

For the compound `CCC(=O)N[C@H](Cc1nc2ccc(C(C)C)cc2s1)C(=O)N[C@@H](CN)C1CCCCC1` [Example 122, (R)—N—((R)-2-amino-1-cyclohexylethyl)-3-(6-isopropylbenzo[d]thiazol-2-yl)-2-propionamidopropanamide], the IC50 under setting [1] was above 10 µM.

For the compound `CCC(=O)N[C@@H](Cc1ccc2ccccc2c1)C(=O)N[C@H](C(=O)N[C@@H](CCCCN1CCOCC1)C(=O)NC(c1ccc(F)cc1)c1ccc(F)cc1)C1CCCC1` [Example 141], the half-inhibitory concentration (IC50) under setting [2] was determined as 0.871 µM.

Take `CCC(=O)N[C@@H](Cc1cn(-c2cccc(Cl)c2)cn1)C(=O)N[C@H](CN)Cc1ccccc1` [Example 239]: the IC50 under setting [1] is above 10 µM.

Turning to `CCC(=O)N[C@@H](Cc1ccc2ccccc2c1)C(=O)N[C@H](C(=O)N[C@@H](CCCCN)C(=O)N[C@@H]1CCOc2ccccc21)C1CCCC1` [Example 149], the IC50 under setting [2] came out at 0.378 µM.

As to `CCC(=O)N[C@@H](Cc1nc2ccc(Cl)cc2s1)C(=O)N[C@H](C(=O)N[C@@H](CCCCN)C(=O)NC(c1ccccn1)c1ccccn1)C1CCOCC1` [244 & 245], the IC50 under setting [2] was found to be 0.297 µM.

Take `CCC(=O)N[C@@H](Cc1cc2ccccc2cn1)C(=O)N[C@H](C(=O)N[C@@H](CCCCN)C(=O)NC(c1ccccc1)c1ccccc1)[C@@H](C)CC` [Example 131]: the IC50 under setting [2] is 2.61 µM.

In the case of `CCC(=O)N[C@@H](Cc1nc2ccc(C(C)C)cc2s1)C(=O)N[C@H](CNC(=O)CCCN1CCOCC1)C1CCCCC1` [Example 59, N—((S)-2-cyclohexyl-2-((S)-3-(6-isopropylbenzo[d]thiazol-2-yl)-2-propionamidopropanamido)ethyl)-4-morpholinobutanamide], under setting [2], the IC50 stood at 0.0631 µM.

As for `CCC(=O)N[C@@H](Cc1nc(C)c(-c2ccc(C#N)cc2)s1)C(=O)N[C@H](CN)Cc1ccccc1` [Example 105], the IC50 under setting [1] was above 10 µM.

`CCC(=O)N[C@@H](Cc1nc2ccc(C(C)C)cc2s1)C(=O)N[C@H](COCCN1CCOCC1)C1CCCCC1` [Example 85]: under setting [2], the IC50 is 0.138 µM.

Consider `CCC(=O)N[C@@H](Cc1nc2ccc(C(C)C)cc2s1)C(=O)N[C@@H](CC(F)(F)F)C(=O)N[C@@H](CCCCN)C(=O)N[C@@H](CC(C)C)C(N)=O` [Example 284] (Propionyl-[Ala(6-iPr-benzothiazol-2-yl)][Abu(4,4,4-F3)]KL-NH2), for which the IC50 under setting [2] was 0.154 µM.

For `CCC(=O)N[C@@H](Cc1nc(C)c(-c2cccc(C(F)(F)F)c2)s1)C(=O)N[C@H](CN)Cc1ccccc1` [Example 233], under setting [1], the IC50 was above 10 µM.

For the compound `CCC(=O)N[C@@H](Cc1nc2ccc(C(C)C)cc2s1)C(=O)N[C@H](CNC(=O)C1CCNCC1)C1CCCCC1` [Example 62, N—((S)-2-cyclohexyl-2-((S)-3-(6-isopropylbenzo[d]thiazol-2-yl)-2-propionamidopropanamido)ethyl)piperidine-4-carboxamide], under setting [2], the IC50 stood at 0.0259 µM.

Regarding `CCC(=O)N[C@@H](Cc1nc2ccc(C(C)C)cc2s1)C(=O)N[C@H](CN1CCOCC1)C1CCCCC1` [Example 80, (S)—N—((S)-1-cyclohexyl-2-morpholinoethyl)-3-(6-isopropylbenzo[d]thiazol-2-yl)-2-propionamidopropanamide], the IC50 under setting [2] was 0.157 µM.

For the compound `CCC(=O)N[C@@H](Cc1nc2ccc(C(C)C)cc2s1)C(=O)NC(CSc1nncn1C)C1CCCCC1` (stereo partly drawn) [Example 84], the IC50 under setting [2] was determined as 0.242 µM.

For the compound `CCC(=O)N[C@H](CNC(=O)[C@@H](N)C1CCCC1)Cc1nc2ccc(Cl)cc2s1` [Example 260], the IC50 under setting [2] is 1.2 µM.

Take `CCC(=O)N[C@@H](Cc1nc2ccc(Cl)cc2s1)C(=O)N[C@H](CN)C1CCOCC1` [Example 219]: the IC50 under setting [2] amounted to 1.56 µM.

For the compound `CCC(=O)N[C@@H](Cc1nc2ccc(Cl)cc2s1)C(=O)N[C@@H](C[C@H]1CC[C@H](CNC(=O)COCCOCCOCCNC(=O)CCCC[C@@H]2SC[C@@H]3NC(=O)N[C@@H]32)CC1)C(=O)N[C@@H](CCCCN(C)C)C(=O)N[C@@H]1CCOc2ccccc21` [DI-427biotin], under setting [2], the IC50 is 0.189 µM.

As for `CCC(=O)N[C@H](CNC(=O)C1(N)CCOCC1)Cc1nc2ccc(C(C)C)cc2s1` [Example 112], the IC50 under setting [2] is 5.06 µM.

As for `CCC(=O)N[C@@H](Cc1nc2cc(Cl)ccc2o1)C(=O)N[C@H](C(=O)N[C@@H](CCCCN)C(=O)NC(c1ccccc1)c1ccccc1)[C@@H](C)CC` [Example 155], the IC50 under setting [2] is 1.2 µM.

For the origin of these results see US12012467B2, “Small molecule DCN1 inhibitors and therapeutic methods using the same” (THE REGENTS OF THE UNIVERSITY OF MICHIGAN, priority 2017, dated 2024).
